Where two headings read alike, the source gives them in different places.
How the values were obtained:
[1] = target: PSV with methionine 184 to valine (M184V) substitution in the reverse transcriptase gene; experiment: microbe, parasite or virus in culture; format: cell-based, HIV; conditions: read-out: M184V IC50
[2] = tested on: wild-type NL4-3 replication defective pseudovirus (PSV); experiment: microbe, parasite or virus in culture; format: cell-based; conditions: NL43, 72 h, U373 cells expressing human CD4 and CXCR4 or CCR5, luciferase signal after 3 days, mean IC50, read-out: WT IC50
[3] = Human immunodeficiency virus 1, 72 h

Question: For `C#C[C@]1(CO)O[C@@H](n2cnc3c(N)nc(F)nc32)C[C@@H]1O` [EFdA, 4′-ethynyl-2-fluoro-2′-deoxyadenosine, reference compound], which IC50 ([1]; U373 cells expressing human CD4 and CXCR4 or CCR5, luciferase signal after 3 days, mean IC50) is on record?
Answer: The IC50 was 0.0351 µM.

Question: And the IC50 [2]?
Answer: Its IC50 is 0.0065 µM.

Question: For `C#C[C@]1(CO)O[C@@H](n2cnc3c(N)nc(F)nc32)C[C@@H]1OC(C)=O` [Example 1, (2R,3S,5R)-5-(6-amino-2-fluoro-9H-purin-9-yl)-2-ethynyl-2-(hydroxymethyl)tetrahydrofuran-3-yl acetate], which IC50 [1, 3] is on record?
Answer: The IC50 was 0.538 µM.

Question: What about the IC50 [2] of the same compound?
Answer: The IC50 was 0.105 µM.

Question: For `C#C[C@]1(CO)O[C@@H](n2cnc3c(N)nc(F)nc32)C[C@@H]1OC(=O)CCCCCCCCCCCCC` [Example 2, (2R,3S,5R)-5-(6-amino-2-fluoro-9H-purin-9-yl)-2-ethynyl-2-(hydroxymethyl)tetrahydrofuran-3-yl tetradecanoate], which IC50 [1, 3] is on record?
Answer: Its IC50 is 0.0078 µM.

Question: And the IC50 [2]?
Answer: The IC50 was 0.0015 µM.

Question: With `C#C[C@]1(CO)O[C@@H](n2cnc3c(N)nc(F)nc32)C[C@@H]1OC(=O)CCCCCCCCC` [Example 3, (2R,3S,5R)-5-(6-amino-2-fluoro-9H-purin-9-yl)-2-ethynyl-2-(hydroxymethyl)tetrahydrofuran-3-yl decanoate] as the compound, how does the IC50 [1, 3] read?
Answer: Its IC50 is 0.007 µM.

Question: And the IC50 [2]?
Answer: Its IC50 is 0.0013 µM.

Question: Which IC50 [1, 3] does the source give for `C#C[C@]1(CO)O[C@@H](n2cnc3c(N)nc(F)nc32)C[C@@H]1OC(=O)CCCCCC` [Example 4, (2R,3S,5R)-5-(6-amino-2-fluoro-9H-purin-9-yl)-2-ethynyl-2-(hydroxymethyl)tetrahydrofuran-3-yl heptanoate] here?
Answer: The IC50 was 0.024 µM.

Question: What about the IC50 [2] of the same compound?
Answer: The IC50 was 0.0041 µM.

Question: For `C#C[C@]1(CO)O[C@@H](n2cnc3c(N)nc(F)nc32)C[C@@H]1OC(=O)C(CCC)CCC` [Example 5, (2R,3S,5R)-5-(6-amino-2-fluoro-9H-purin-9-yl)-2-ethynyl-2-(hydroxymethyl)tetrahydrofuran-3-yl 2-propylpentanoate], which IC50 [1, 3] is on record?
Answer: The IC50 was 0.168 µM.

Question: What about the IC50 [2] of the same compound?
Answer: Its IC50 is 0.0355 µM.

Question: What does the source list for `C#C[C@]1(CO)O[C@@H](n2cnc3c(N)nc(F)nc32)C[C@@H]1OC(=O)CCCCCCCCCCCCCCCCCCC` [Example 6, (2R,3S,5R)-5-(6-amino-2-fluoro-9H-purin-9-yl)-2-ethynyl-2-(hydroxymethyl)tetrahydrofuran-3-yl icosanoate]?
Answer: IC50 [1, 3]: 3.28 µM; IC50 [2]: 0.635 µM

Question: Which results are given for `C#C[C@]1(CO)O[C@@H](n2cnc3c(N)nc(F)nc32)C[C@@H]1OC(=O)CCCCCCC/C=C\C/C=C\C/C=C\CC` [Example 7, (9Z,12Z,15Z)-(2R,3S,5R)-5-(6-amino-2-fluoro-9H-purin-9-yl)-2-ethynyl-2-(hydroxymethyl)tetrahydrofuran-3-yl octadeca-9,12,15-trienoate]?
Answer: IC50 [1, 3]: 0.0364 µM; IC50 [2]: 0.0071 µM

Question: What does the source list for `C#C[C@]1(CO)O[C@@H](n2cnc3c(NC(=O)OCC)nc(F)nc32)C[C@@H]1OC(=O)CCCCCCCCC` [Example 8, (2R,3S,5R)-5-(6-((ethoxycarbonyl)amino)-2-fluoro-9H-purin-9-yl)-2-ethynyl-2-(hydroxymethyl)tetrahydrofuran-3-yl decanoate]?
Answer: IC50 [1, 3]: 0.46 µM; IC50 [2]: 0.165 µM

Question: With `C#C[C@]1(COC(=O)OCC)O[C@@H](n2cnc3c(N)nc(F)nc32)C[C@@H]1OC(=O)CCCCCCCCC` [Example 9, (2R,3S,5R)-5-(6-amino-2-fluoro-9H-purin-9-yl)-2-(((ethoxycarbonyl)oxy)methyl)-2-ethynyltetrahydrofuran-3-yl decanoate] as the compound, how does the IC50 [1, 3] read?
Answer: The IC50 was 0.053 µM.

Question: What about the IC50 [2] of the same compound?
Answer: Its IC50 is 0.0114 µM.

Question: `C#C[C@]1(CO)O[C@@H](n2cnc3c(N)nc(F)nc32)C[C@@H]1OC(=O)Cc1ccccc1` [Example 10, (2R,3S,5R)-5-(6-amino-2-fluoro-9H-purin-9-yl)-2-ethynyl-2-(hydroxymethyl)tetrahydrofuran-3-yl 2-phenylacetate] was tested. Which IC50 [1, 3] did it give?
Answer: Its IC50 is 0.0262 µM.

Question: And the IC50 [2]?
Answer: The IC50 was 0.0072 µM.

Question: How did the IC50 [1, 3] turn out when `C#C[C@]1(CO)O[C@@H](n2cnc3c(N)nc(F)nc32)C[C@@H]1OC(=O)C(C)CCCCC` (stereo partly drawn) [Example 11, (2R,3S,5R)-5-(6-amino-2-fluoro-9H-purin-9-yl)-2-ethynyl-2-(hydroxymethyl)tetrahydrofuran-3-yl 2-methylheptanoate] was run?
Answer: The IC50 was 0.017 µM.

Question: What about the IC50 [2] of the same compound?
Answer: The IC50 was 0.0029 µM.

Question: How did the IC50 [1, 3] turn out when `C#C[C@]1(CO)O[C@@H](n2cnc3c(N)nc(F)nc32)C[C@@H]1OC(=O)[C@H]1CC[C@H](CCCCC)CC1` [Example 12, (2R,3S,5R)-5-(6-amino-2-fluoro-9H-purin-9-yl)-2-ethynyl-2-(hydroxymethyl)tetrahydrofuran-3-yl (1s,4S)-4-pentylcyclohexane-1-carboxylate] was run?
Answer: The IC50 was 0.0107 µM.

Question: What about the IC50 [2] of the same compound?
Answer: Its IC50 is 0.0018 µM.

Question: How did the IC50 [1, 3] turn out when `C#C[C@]1(CO)O[C@@H](n2cnc3c(N)nc(F)nc32)C[C@@H]1OC(=O)C(C)(C)C` [Example 13, (2R,3S,5R)-5-(6-amino-2-fluoro-9H-purin-9-yl)-2-ethynyl-2-(hydroxymethyl)tetrahydrofuran-3-yl pivalate] was run?
Answer: The IC50 was 1.28 µM.

Question: What about the IC50 [2] of the same compound?
Answer: The IC50 was 0.263 µM.

Question: Which IC50 [1, 3] does the source give for `C#C[C@]1(CO)O[C@@H](n2cnc3c(NC(=O)CCCCCCCCCCCCC)nc(F)nc32)C[C@@H]1OC(C)=O` [Example 14, (2R,3S,5R)-2-ethynyl-5-(2-fluoro-6-tetradecanamido-9H-purin-9-yl)-2-(hydroxymethyl)tetrahydrofuran-3-yl acetate] here?
Answer: The IC50 was 0.068 µM.

Question: What about the IC50 [2] of the same compound?
Answer: Its IC50 is 0.0114 µM.

Question: Which results are given for `C#C[C@]1(CO)O[C@@H](n2cnc3c(N)nc(F)nc32)C[C@@H]1OC(=O)C(CCCCCC)CCCCCCCC` (stereo partly drawn) [Example 15, (2R,3S,5R)-5-(6-amino-2-fluoro-9H-purin-9-yl)-2-ethynyl-2-(hydroxymethyl)tetrahydrofuran-3-yl 2-hexyldecanoate]?
Answer: IC50 [1, 3]: 3.12 µM; IC50 [2]: 0.555 µM

Question: What does the source list for `C#C[C@]1(CO)O[C@@H](n2cnc3c(N)nc(F)nc32)C[C@@H]1OC(=O)C1CCCCC1` [Example 16, (2R,3S,5R)-5-(6-amino-2-fluoro-9H-purin-9-yl)-2-ethynyl-2-(hydroxymethyl)tetrahydrofuran-3-yl cyclohexanecarboxylate]?
Answer: IC50 [1, 3]: 0.019 µM; IC50 [2]: 0.0039 µM

Question: Which results are given for `C#C[C@]1(CO)O[C@@H](n2cnc3c(N)nc(F)nc32)C[C@@H]1OC(=O)C(CCCC)CCCCCC` (stereo partly drawn) [Example 17, (2R,3S,5R)-5-(6-amino-2-fluoro-9H-purin-9-yl)-2-ethynyl-2-(hydroxymethyl)tetrahydrofuran-3-yl 2-butyloctanoate]?
Answer: IC50 [1, 3]: 0.598 µM; IC50 [2]: 0.145 µM

Question: `C#C[C@]1(CO)O[C@@H](n2cnc3c(N)nc(F)nc32)C[C@@H]1OC(=O)C(C)(C)CCC` [Example 18, (2R,3S,5R)-5-(6-amino-2-fluoro-9H-purin-9-yl)-2-ethynyl-2-(hydroxymethyl)tetrahydrofuran-3-yl 2,2-dimethylpentanoate] was tested. Which IC50 [1, 3] did it give?
Answer: Its IC50 is 0.168 µM.

Question: And the IC50 [2]?
Answer: Its IC50 is 0.0464 µM.

Question: Which results are given for `C#C[C@]1(CO)O[C@@H](n2cnc3c(N)nc(F)nc32)C[C@@H]1OC(=O)c1ccccc1` [Example 19, (2R,3S,5R)-5-(6-amino-2-fluoro-9H-purin-9-yl)-2-ethynyl-2-(hydroxymethyl)tetrahydrofuran-3-yl benzoate]?
Answer: IC50 [1, 3]: 0.197 µM; IC50 [2]: 0.0408 µM

Question: `C#C[C@]1(CO)O[C@@H](n2cnc3c(N)nc(F)nc32)C[C@@H]1OC(=O)CCC` [Example 20, (2R,3S,5R)-5-(6-amino-2-fluoro-9H-purin-9-yl)-2-ethynyl-2-(hydroxymethyl)tetrahydrofuran-3-yl butyrate] was tested. Which IC50 [1, 3] did it give?
Answer: The IC50 was 0.123 µM.

Question: What about the IC50 [2] of the same compound?
Answer: The IC50 was 0.0277 µM.

Question: Which IC50 [1, 3] does the source give for `C#C[C@]1(CO)O[C@@H](n2cnc3c(N)nc(F)nc32)C[C@@H]1OC(=O)[C@H]1CC[C@H](C(C)(C)C)CC1` [Example 22, (2R,3S,5R)-5-(6-amino-2-fluoro-9H-purin-9-yl)-2-ethynyl-2-(hydroxymethyl)tetrahydrofuran-3-yl (1r,4S)-4-(tert-butyl)cyclohexane-1-carboxylate] here?
Answer: The IC50 was 0.0093 µM.

Question: And the IC50 [2]?
Answer: Its IC50 is 0.0026 µM.

Question: For `C#C[C@]1(COC(=O)OCCCCCC)O[C@@H](n2cnc3c(N)nc(F)nc32)C[C@@H]1OC(=O)CCCCCCCCCCCCC` [Example 23, (2R,3S,5R)-5-(6-amino-2-fluoro-9H-purin-9-yl)-2-ethynyl-2-((((hexyloxy)carbonyl)oxy)methyl)tetrahydrofuran-3-yl tetradecanoate], which IC50 [1, 3] is on record?
Answer: The IC50 was 1.13 µM.

Question: And the IC50 [2]?
Answer: Its IC50 is 1.09 µM.

Question: Which IC50 [1, 3] does the source give for `C#C[C@]1(COC(=O)OCC)O[C@@H](n2cnc3c(N)nc(F)nc32)C[C@@H]1OC(=O)CCCCCCCCCCCCCCCCC` [Example 24, (2R,3S,5R)-5-(6-amino-2-fluoro-9H-purin-9-yl)-2-(((ethoxycarbonyl)oxy)methyl)-2-ethynyltetrahydrofuran-3-yl stearate] here?
Answer: Its IC50 is 2.12 µM.

Question: And the IC50 [2]?
Answer: Its IC50 is 1.27 µM.

Question: With `C#C[C@]1(CO)O[C@@H](n2cnc3c(NC(=O)CCCCCC)nc(F)nc32)C[C@@H]1OC(=O)CCCCCC` [Example 25, (2R,3S,5R)-2-ethynyl-5-(2-fluoro-6-heptanamido-9H-purin-9-yl)-2-(hydroxymethyl)tetrahydrofuran-3-yl heptanoate] as the compound, how does the IC50 [1, 3] read?
Answer: The IC50 was 0.0439 µM.

Question: And the IC50 [2]?
Answer: Its IC50 is 0.0094 µM.

Question: For `C#C[C@]1(CO)O[C@@H](n2cnc3c(NC(=O)CCC)nc(F)nc32)C[C@@H]1OC(=O)CCC` [Example 26, (2R,3S,5R)-5-(6-butyramido-2-fluoro-9H-purin-9-yl)-2-ethynyl-2-(hydroxymethyl)tetrahydrofuran-3-yl butyrate], which IC50 [1, 3] is on record?
Answer: Its IC50 is 0.465 µM.

Question: And the IC50 [2]?
Answer: Its IC50 is 0.102 µM.

Question: For `C#C[C@]1(CO)O[C@@H](n2cnc3c(NC(=O)CCCCCCCCC)nc(F)nc32)C[C@@H]1OC(=O)CCCCCCCCC` [Example 27, (2R,3S,5R)-5-(6-decanamido-2-fluoro-9H-purin-9-yl)-2-ethynyl-2-(hydroxymethyl)tetrahydrofuran-3-yl decanoate], which IC50 [1, 3] is on record?
Answer: The IC50 was 0.0286 µM.

Question: And the IC50 [2]?
Answer: Its IC50 is 0.0068 µM.

Question: With `C#C[C@]1(CO)O[C@@H](n2cnc3c(NC(=O)CCCCCCCCCCCCC)nc(F)nc32)C[C@@H]1OC(=O)CC(C)(C)c1c(C)cc(C)cc1OC(C)=O` [Example 28, (2R,3S,5R)-2-ethynyl-5-(2-fluoro-6-tetradecanamido-9H-purin-9-yl)-2-(hydroxymethyl)tetrahydrofuran-3-yl 3-(2-acetoxy-4,6-dimethylphenyl)-3-methylbutanoate] as the compound, how does the IC50 [1, 3] read?
Answer: Its IC50 is 0.153 µM.

Question: What about the IC50 [2] of the same compound?
Answer: Its IC50 is 0.0415 µM.
